This is an account of results in US9809623B2, “α4β7 peptide monomer and dimer antagonists” (Protagonist Therapeutics, Inc., priority 2014, dated 2017).

In data set [1] the target is T1, rh integrin α4β7 (Homo sapiens, UniProt P13612+P26010).
T1 construct: purchased R&D Systems 5397-A30
Nature of the data set: α4β7-MAdCAM Competition ELISA. Format: binding. The note with it: Table 3-B, Potency (α4β7); range classes; read-out: α4β7 ELISA IC50. Here is the method: A nickel coated plate (Pierce #15442) was coated with rh integrin α4β7 (R&D Systems #5397-A30) at 800 ng/well and incubated at room temperature with shaking for 1 hr. The solution was then removed by shaking and blocked with assay buffer (50 mM Tris-HCl pH7.6, 150 mM NaCl, 1 mM MnCl2 or MgCl2, 0.05% Tween-20 and 0.5% BSA) at 250 ul/well. The plate was then incubated at room temperature for 1 hr. Each well was washed 3 times with wash buffer (50 mM Tris-HCl pH7.6, 100 mM NaCl, 1 mM MnCl2 or MgCl2, 0.05% Tween-20). To each well was added 25 ul of a serial dilution (3-fold dilutions in assay buffer) of peptide starting at 20 μM. 25 ul of recombinant human MAdCAM-1 (R&D Systems #6056-MC) was then added to each well at a fixed concentration 20 nM. The final starting peptide concentration was 10 μM, and the final MAdCAM-1 concentration was 10 nM. The plates were then incubated at room temperature for 1 hr to reach binding equilibrium. The wells were then washed three times with wash buffer. 50 ul of mouse anti-human IgG1-HRP (Invitrogen # A10648) diluted in 1:2000 in assay buffer was then added to each well. The wells were incubated at room temperature for 45 min with shaking. The wells were then washed 3 times with wash buffer. 100 ul of 3,3′,5,5′-Tetramethylbenzidine (TMB) were then added to each well and closely observe during development time. The reaction was stopped with 2N H2SO4 and absorbance was read at 450 nm.
TMB is a chromogenic substrate suitable for use in ELISA procedures, which utilize horseradish peroxidase conjugates. This substrate produces a soluble end product that is blue in color and can be read spectrophotometrically at 370 or 655 nm. The reaction maybe stopped with 2 M H2S04, resulting in a yellow solution that is read at 450 nm. Each tablet contains 1 mg of TMB substrate. To prepare TMB Substrate Solution, dissolve one 3,3′,5,5′-tetramethylbenzidine tablet in 1 ml of DMSO and add to 9 ml of 0.05 M Phosphate-Citrate Buffer, pH 5.0. Add 2 μl of fresh 30% hydrogen peroxide (Product No. H 1009) per 10 ml of substrate buffer solution, immediately prior to use.
For orientation: In an ELISA, binding on a coated surface is turned into a signal by an enzyme label.

In data set [2] the target is α4β7 (Homo sapiens, UniProt P13612+P26010). Nature of the data set: α4β7-MAdCAM Cell Adhesion Assay (RPMI 8866 human cells). The note with it: Table 3-B, Potency (α4β7); range classes; read-out: α4β7 cell (Hu) IC50. In kind it is cell-based. On the set-up: host or cells: RPMI 8866 human B lymphoblastoid cells. The method, boiled down: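 Adhesion read-out: MTT absorbance at 570 nm minus no-cell wells, after three washes. Plates coated with rh MAdCAM-1/Fc received peptide dilutions plus 200,000 RPMI 8866 cells in Mn2+ (1 mM)-supplemented DMEM, 0.1% BSA, HEPES pH 7, incubated 30-45 min, 37 °C.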
Chain of α4β7 (P13612 34-1032): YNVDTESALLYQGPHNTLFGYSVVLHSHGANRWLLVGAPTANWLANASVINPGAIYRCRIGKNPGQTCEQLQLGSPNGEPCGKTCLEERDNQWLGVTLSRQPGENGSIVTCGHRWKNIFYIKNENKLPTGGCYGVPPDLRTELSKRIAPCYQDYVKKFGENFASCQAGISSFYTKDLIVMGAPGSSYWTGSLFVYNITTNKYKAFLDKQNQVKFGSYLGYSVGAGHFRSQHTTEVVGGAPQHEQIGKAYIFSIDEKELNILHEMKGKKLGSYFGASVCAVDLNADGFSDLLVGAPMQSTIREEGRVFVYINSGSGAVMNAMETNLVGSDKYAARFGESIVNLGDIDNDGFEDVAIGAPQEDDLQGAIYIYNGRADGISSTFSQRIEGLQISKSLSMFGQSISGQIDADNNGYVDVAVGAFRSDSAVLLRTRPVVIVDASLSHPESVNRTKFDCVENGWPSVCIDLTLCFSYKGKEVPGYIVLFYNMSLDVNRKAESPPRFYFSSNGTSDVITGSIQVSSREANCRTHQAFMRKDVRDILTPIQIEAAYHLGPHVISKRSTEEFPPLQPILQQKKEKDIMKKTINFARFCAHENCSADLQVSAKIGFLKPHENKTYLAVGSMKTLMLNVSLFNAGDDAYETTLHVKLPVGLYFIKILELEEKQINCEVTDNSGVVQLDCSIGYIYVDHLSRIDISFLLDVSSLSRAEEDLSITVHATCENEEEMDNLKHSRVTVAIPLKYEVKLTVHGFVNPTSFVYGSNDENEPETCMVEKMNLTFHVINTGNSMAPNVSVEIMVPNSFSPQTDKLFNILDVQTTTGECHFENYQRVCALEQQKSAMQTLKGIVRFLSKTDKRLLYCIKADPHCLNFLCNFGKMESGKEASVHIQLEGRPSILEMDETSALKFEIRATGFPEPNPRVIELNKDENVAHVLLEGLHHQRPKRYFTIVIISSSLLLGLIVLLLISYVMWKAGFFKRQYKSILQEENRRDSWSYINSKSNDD
Chain of α4β7 (P26010 20-798): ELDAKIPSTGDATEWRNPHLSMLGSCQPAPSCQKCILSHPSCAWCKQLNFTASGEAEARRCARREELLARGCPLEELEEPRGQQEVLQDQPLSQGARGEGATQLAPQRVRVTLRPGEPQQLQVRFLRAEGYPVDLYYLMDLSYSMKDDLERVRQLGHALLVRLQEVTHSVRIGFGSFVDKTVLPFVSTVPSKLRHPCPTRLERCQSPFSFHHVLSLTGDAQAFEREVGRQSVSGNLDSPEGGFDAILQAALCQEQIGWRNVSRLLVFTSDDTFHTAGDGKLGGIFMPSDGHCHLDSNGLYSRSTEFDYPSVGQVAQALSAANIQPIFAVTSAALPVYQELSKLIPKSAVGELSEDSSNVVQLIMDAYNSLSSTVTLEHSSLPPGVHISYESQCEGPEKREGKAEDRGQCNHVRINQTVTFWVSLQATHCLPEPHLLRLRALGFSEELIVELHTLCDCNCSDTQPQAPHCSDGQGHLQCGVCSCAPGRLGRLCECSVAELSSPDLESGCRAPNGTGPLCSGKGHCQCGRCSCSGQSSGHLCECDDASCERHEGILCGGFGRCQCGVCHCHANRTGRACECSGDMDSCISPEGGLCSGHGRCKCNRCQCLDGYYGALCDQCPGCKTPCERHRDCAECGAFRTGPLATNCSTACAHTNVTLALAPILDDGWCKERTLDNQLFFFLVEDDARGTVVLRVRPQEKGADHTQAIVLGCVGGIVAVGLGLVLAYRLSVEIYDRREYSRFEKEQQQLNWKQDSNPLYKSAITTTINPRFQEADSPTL

Data set [3] in a line: Simulated Intestinal Fluid (SIF) Stability Assay. The note with it: pig, pH 6.5, Table 3-B, > means experiment was stopped at that time and half life was not reached, read-out: Stabilty SIF t1/2. In kind it is in vitro ADME, porcine. On the procedure:
Studies were carried out in simulated intestinal fluid (SIF) to evaluate intestinal stability of the peptide molecules of the instant invention. To prepare the SIF reagent, blank FASSIF was prepared by dissolving 0.348 g NaOH, 3.954 g sodium phosphate monobasic monohydrate and 6.186 g NaCl in a final volume of 1 liter water (final pH=6.5). To this solution, 24 g porcine pancreatin (Sigma catalog P7545) was added and stirred for 30 minutes (final pancreatin concentration is 2.4%). The solution was filtered through a cheese cloth and a No. 1 Whatman filter, and 10 ml aliquots were stored at −70° C. To run the reaction, a 10 ml aliquot was thawed at 37° C., and 125 ul aliquots were removed and mixed with an equal volume of blank FASSIF. The peptide stock solution (10 mM in 100% DMSO) was diluted 75-fold in blank FASSIF. A 50 μl aliquot of the diluted peptide was combined with 125 μl pancreatin (2.4%) and 125 μl blank FASSIF to yield final concentrations of 1% pancreatin and 22 μM peptide. The reactions were incubated at 37° C., and at various time points 50 μl aliquots were removed and added to 200 μl of quench solution containing 50% acetonitrile, 50% methanol, 5% formic acid, and 1 μg/ml internal standard. The quenched samples were centrifuged at 10,000 rpm for 10 minutes, and the supernatants were analyzed by LCMS/MS. The percent remaining at each time point was calculated based on the peak area response ratio of test to compound to internal standard. Half-lives were calculated by fitting to a first-order exponential decay equation using GraphPad.

Where [4] appears, read: simulated intestinal fluid (SIF) with 1% porcine pancreatin.

Like-named read-outs stand apart in the source and are kept apart here. Numbered stars: 1 amine (or outer) side, 2 acyl side, 3 side chain; on linkers, the order of the positions; unused ones are H or OH. Bridge positions count the residues as written; N and C are the ends. Square brackets hold non-standard residues; d marks the D form. Peptide text beside a SMILES is read from it. I, II: the chains in the order shown. Phe(3-CONH2) = NC(=O)c1cccc(C[C@H](N)C(=O)O)c1; 1Nal = N[C@@H](Cc1cccc2ccccc12)C(=O)O; 2Nal = N[C@@H](Cc1ccc2ccccc2c1)C(=O)O; d1Nal = N[C@H](Cc1cccc2ccccc12)C(=O)O; Diglycolyl = O=C(COCC(=O)[*:2])[*:1]; NMeR = CN[C@@H](CCCNC(=N)N)C(=O)O; Tic = O=C(O)[C@@H]1Cc2ccccc2CN1; Pen = CC(C)(S)[C@H](N)C(=O)O; dNMeK = CN[C@H](CCCCN)C(=O)O; Dap = NC[C@H](N)C(=O)O

T1 sequence (P13612 34-977 limits assumed): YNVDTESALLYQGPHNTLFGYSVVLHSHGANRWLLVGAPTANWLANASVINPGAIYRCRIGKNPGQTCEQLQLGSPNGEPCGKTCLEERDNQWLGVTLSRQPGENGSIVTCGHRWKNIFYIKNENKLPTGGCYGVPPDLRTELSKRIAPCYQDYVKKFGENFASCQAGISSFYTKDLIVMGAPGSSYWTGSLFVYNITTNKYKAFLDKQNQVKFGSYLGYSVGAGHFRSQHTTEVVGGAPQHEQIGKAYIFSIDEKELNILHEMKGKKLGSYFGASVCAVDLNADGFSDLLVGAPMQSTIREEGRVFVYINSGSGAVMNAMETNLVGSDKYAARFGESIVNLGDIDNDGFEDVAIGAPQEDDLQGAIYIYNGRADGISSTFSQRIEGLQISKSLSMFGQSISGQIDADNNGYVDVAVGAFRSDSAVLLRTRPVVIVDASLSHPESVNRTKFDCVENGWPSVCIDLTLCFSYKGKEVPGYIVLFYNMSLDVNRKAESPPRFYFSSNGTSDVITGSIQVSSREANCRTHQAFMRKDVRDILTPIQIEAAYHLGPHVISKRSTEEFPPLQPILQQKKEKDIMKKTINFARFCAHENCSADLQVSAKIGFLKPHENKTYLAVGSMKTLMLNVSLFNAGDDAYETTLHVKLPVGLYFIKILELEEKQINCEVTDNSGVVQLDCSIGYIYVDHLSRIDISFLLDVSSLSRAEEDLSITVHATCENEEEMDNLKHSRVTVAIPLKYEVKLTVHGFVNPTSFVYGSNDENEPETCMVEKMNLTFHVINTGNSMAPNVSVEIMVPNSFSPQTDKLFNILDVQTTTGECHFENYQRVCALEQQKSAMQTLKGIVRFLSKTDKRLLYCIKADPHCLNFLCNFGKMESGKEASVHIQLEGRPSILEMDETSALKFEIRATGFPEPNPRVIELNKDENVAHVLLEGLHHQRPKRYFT
T1 sequence (P26010 20-723 limits assumed): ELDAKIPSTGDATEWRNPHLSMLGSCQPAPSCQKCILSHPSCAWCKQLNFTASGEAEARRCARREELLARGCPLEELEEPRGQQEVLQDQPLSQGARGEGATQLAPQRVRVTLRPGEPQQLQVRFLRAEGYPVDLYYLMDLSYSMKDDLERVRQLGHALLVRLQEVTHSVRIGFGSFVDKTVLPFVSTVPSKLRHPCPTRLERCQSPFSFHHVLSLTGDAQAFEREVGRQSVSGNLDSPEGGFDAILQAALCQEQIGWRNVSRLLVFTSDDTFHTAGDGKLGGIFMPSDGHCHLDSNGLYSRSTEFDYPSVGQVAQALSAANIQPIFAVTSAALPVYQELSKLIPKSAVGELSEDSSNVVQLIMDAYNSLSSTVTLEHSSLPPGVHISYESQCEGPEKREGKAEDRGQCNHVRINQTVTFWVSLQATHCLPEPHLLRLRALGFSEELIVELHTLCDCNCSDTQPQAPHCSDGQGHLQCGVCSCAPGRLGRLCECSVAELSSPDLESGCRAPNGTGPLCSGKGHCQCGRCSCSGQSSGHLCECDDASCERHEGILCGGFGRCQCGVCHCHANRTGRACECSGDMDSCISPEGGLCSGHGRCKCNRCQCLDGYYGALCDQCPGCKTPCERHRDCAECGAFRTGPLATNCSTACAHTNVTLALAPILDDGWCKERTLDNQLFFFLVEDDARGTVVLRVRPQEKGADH

For the molecule `CC(=O)N[C@@H]1C(=O)N(C)[C@@H](CCCNC(=N)N)C(=O)N[C@@H](CO)C(=O)N[C@@H](CC(=O)O)C(=O)N[C@@H]([C@@H](C)O)C(=O)N[C@@H](CC(C)C)C(=O)N[C@H](C(=O)N[C@@H](Cc2ccc3ccccc3c2)C(=O)N[C@@H](CCC(=O)O)C(=O)N(C)[C@H](CCCCN)C(N)=O)C(C)(C)SSC1(C)C` [compound 15] (Ac-[Pen][NMeR]SDTL[Pen][2Nal]E[dNMeK]-NH2; disulfide 1-7), in data set [1], the half-inhibitory concentration (IC50) is below 0.01 µM.

`CC(=O)N[C@@H]1C(=O)N(C)[C@@H](CCCNC(=N)N)C(=O)N[C@@H](CO)C(=O)N[C@@H](CC(=O)O)C(=O)N[C@@H]([C@@H](C)O)C(=O)N[C@@H](CC(C)C)C(=O)N[C@H](C(=O)N[C@H](Cc2cccc3ccccc23)C(=O)N[C@@H](CCC(=O)O)C(=O)N[C@H](CCCCN)C(N)=O)C(C)(C)SSC1(C)C` [compound 10] (Ac-[Pen][NMeR]SDTL[Pen][d1Nal]E[dK]-NH2; disulfide 1-7): the IC50 in data set [1] is 0.01 to 0.025 µM.

For the molecule `CC(=O)N[C@@H]1C(=O)N(C)[C@@H](CCCNC(=N)N)C(=O)N[C@@H](CO)C(=O)N[C@@H](CC(=O)O)C(=O)N[C@@H]([C@@H](C)O)C(=O)N[C@@H](CC(C)C)C(=O)N[C@H](C(=O)N[C@@H](Cc2ccc3ccccc3c2)C(=O)N[C@H](CCCCN)C(N)=O)C(C)(C)SSC1(C)C` [compound 88] (Ac-[Pen][NMeR]SDTL[Pen][2Nal][dK]-NH2; disulfide 1-7), in data set [1], the IC50 lay in the range of 0.01 to 0.025 µM.

On to `CC(=O)N[C@@H]1C(=O)N(C)[C@@H](CCCNC(=N)N)C(=O)N[C@@H](CO)C(=O)N[C@@H](CC(=O)O)C(=O)N[C@@H]([C@@H](C)O)C(=O)N[C@@H](CC(C)C)C(=O)N[C@H](C(=O)N[C@@H](Cc2cccc3ccccc23)C(=O)N[C@H](CCC(=O)O)C(=O)N[C@H](CCCCN)C(N)=O)C(C)(C)SSC1(C)C` [compound 8] (Ac-[Pen][NMeR]SDTL[Pen][1Nal][dE][dK]-NH2; disulfide 1-7), for which the IC50 in data set [1] lay in the range of 0.025 to 0.05 µM.

With `CC(=O)N[C@@H]1C(=O)N(C)[C@@H](CCCNC(=N)N)C(=O)N[C@@H](CO)C(=O)N[C@@H](CC(=O)O)C(=O)N[C@@H]([C@@H](C)O)C(=O)N[C@@H](CC(C)C)C(=O)N[C@H](C(=O)N2Cc3ccccc3C[C@H]2C(=O)N[C@H](CCC(=O)O)C(=O)N[C@H](CCCCNC(=O)COCC(=O)NCCCC[C@@H](NC(=O)[C@@H](CCC(=O)O)NC(=O)[C@@H]2Cc3ccccc3CN2C(=O)[C@H]2NC(=O)[C@H](CC(C)C)NC(=O)[C@H]([C@@H](C)O)NC(=O)[C@H](CC(=O)O)NC(=O)[C@H](CO)NC(=O)[C@H](CCCNC(=N)N)N(C)C(=O)[C@@H](NC(C)=O)C(C)(C)SSC2(C)C)C(N)=O)C(N)=O)C(C)(C)SSC1(C)C` [compound 80] (I: Ac-[Pen][NMeR]SDTL[Pen][Tic][dE][dK]-NH2 / II: Ac-[Pen][NMeR]SDTL[Pen][Tic][dE][dK]-NH2; disulfide I:1-I:7, II:1-II:7; linker I:10-II:10 via Diglycolyl), the IC50 in data set [2] is 0.05 to 0.1 µM. The half-life at 22 μM in data set [3] (setting [4]) was above 3 h.

As for `CC(=O)N[C@H](CCCCN)C(=O)N[C@H]1CSSC[C@@H](C(=O)N[C@@H](Cc2c[nH]c3ccccc23)C(=O)N[C@H](CCCCNC(=O)COCC(=O)NCCCC[C@@H](NC(=O)[C@H](Cc2c[nH]c3ccccc23)NC(=O)[C@@H]2CSSC[C@H](NC(=O)[C@@H](CCCCN)NC(C)=O)C(=O)N(C)[C@@H](CCCNC(=N)N)C(=O)N[C@@H](CO)C(=O)N[C@@H](CC(=O)O)C(=O)N[C@@H]([C@@H](C)O)C(=O)N[C@@H](CC(C)C)C(=O)N2)C(N)=O)C(N)=O)NC(=O)[C@H](CC(C)C)NC(=O)[C@H]([C@@H](C)O)NC(=O)[C@H](CC(=O)O)NC(=O)[C@H](CO)NC(=O)[C@H](CCCNC(=N)N)N(C)C1=O` [compound 4] (I: Ac-[dK]C[NMeR]SDTLCW[dK]-NH2 / II: Ac-[dK]C[NMeR]SDTLCW[dK]-NH2; disulfide I:2-I:8, II:2-II:8; linker I:10-II:10 via Diglycolyl), the half-inhibitory concentration (IC50) in data set [2] is 0.01 to 0.025 µM. The half-life at 22 μM in data set [3] (setting [4]) is below 0.333 h.

Consider `CC(=O)N[C@@H]1C(=O)N(C)[C@@H](CCCNC(=N)N)C(=O)N[C@@H](CO)C(=O)N[C@@H](CC(=O)O)C(=O)N[C@@H]([C@@H](C)O)C(=O)N[C@@H](CC(C)C)C(=O)N[C@H](C(=O)N[C@@H](Cc2cccc(C(N)=O)c2)C(=O)N[C@H](CCC(=O)O)C(=O)N[C@H](CCCCNC(=O)COCC(=O)NCCCC[C@@H](NC(=O)[C@@H](CCC(=O)O)NC(=O)[C@H](Cc2cccc(C(N)=O)c2)NC(=O)[C@H]2NC(=O)[C@H](CC(C)C)NC(=O)[C@H]([C@@H](C)O)NC(=O)[C@H](CC(=O)O)NC(=O)[C@H](CO)NC(=O)[C@H](CCCNC(=N)N)N(C)C(=O)[C@@H](NC(C)=O)C(C)(C)SSC2(C)C)C(N)=O)C(N)=O)C(C)(C)SSC1(C)C` [compound 99] (I: Ac-[Pen][NMeR]SDTL[Pen][Phe(3-CONH2)][dE][dK]-NH2 / II: Ac-[Pen][NMeR]SDTL[Pen][Phe(3-CONH2)][dE][dK]-NH2; disulfide I:1-I:7, II:1-II:7; linker I:10-II:10 via Diglycolyl), for which the IC50 in data set [2] was 0.1 to 0.5 µM. Moreover, in data set [3] (simulated intestinal fluid (SIF) with porcine pancreatin), the half-life at 22 μM is above 3 h.

`CC(=O)N[C@@H]1C(=O)N(C)[C@@H](CCCNC(=N)N)C(=O)N[C@@H](CO)C(=O)N[C@@H](CC(=O)O)C(=O)N[C@@H]([C@@H](C)O)C(=O)N[C@@H](CC(C)C)C(=O)N[C@H](C(=O)N[C@H](Cc2ccccc2)C(=O)N[C@H](CCC(=O)O)C(=O)N[C@H](CCCCNC(=O)COCC(=O)NCCCC[C@@H](NC(=O)[C@@H](CCC(=O)O)NC(=O)[C@@H](Cc2ccccc2)NC(=O)[C@H]2NC(=O)[C@H](CC(C)C)NC(=O)[C@H]([C@@H](C)O)NC(=O)[C@H](CC(=O)O)NC(=O)[C@H](CO)NC(=O)[C@H](CCCNC(=N)N)N(C)C(=O)[C@@H](NC(C)=O)C(C)(C)SSC2(C)C)C(N)=O)C(N)=O)C(C)(C)SSC1(C)C` [compound 2] (I: Ac-[Pen][NMeR]SDTL[Pen][dF][dE][dK]-NH2 / II: Ac-[Pen][NMeR]SDTL[Pen][dF][dE][dK]-NH2; disulfide I:1-I:7, II:1-II:7; linker I:10-II:10 via Diglycolyl): in data set [2], the half-inhibitory concentration (IC50) was in the range of 0.1 to 0.5 µM. In data set [3] (setting [4]), the half-life at 22 μM is above 3 h.

Consider `CC(=O)N[C@@H]1C(=O)N(C)[C@@H](CCCNC(=N)N)C(=O)N[C@@H](CO)C(=O)N[C@@H](CC(=O)O)C(=O)N[C@@H]([C@@H](C)O)C(=O)N[C@@H](CC(C)C)C(=O)N[C@H](C(=O)N[C@@H](Cc2c[nH]c3ccccc23)C(=O)N[C@H](CCC(=O)O)C(=O)N[C@@H](CN)C(N)=O)C(C)(C)SSC1(C)C` [compound 55] (Ac-[Pen][NMeR]SDTL[Pen]W[dE][Dap]-NH2; disulfide 1-7), for which, in data set [2], the IC50 was 0.1 to 0.5 µM. Besides, the half-life at 22 μM in data set [3] (setting [4]) is above 3 h.

By IC50 is commonly meant the concentration that inhibits the measured activity by half.
